US10208023B2, “Heterocyclic inhibitors of the sodium channel” (priority 2013, dated 2019)
Where two headings read alike, the source gives them in different places.

Legend:
formalin test in rats = experiment: Formalin test in rats (automated flinch detection); type: in vivo; conditions: rat; for Phase 1 paw flinches: Phase I (0-9 mins); for Total Phase 2 paw flinches: Phase II (10-60 mins); for Phase 2a paw flinches: Phase IIA (10-40 mins); for Phase 2b paw flinches: Phase IIB (41-60 mins)
Protocol: The formalin test in rats was performed as previously described (McNamara, 2007. Proc. Natl. Acad. Sci., vol 104, page 13525) using an automated flinch-detecting system (T. Yaksh, University of California at San Diego, La Jolla, Calif.). On the day of testing, a small metal band (0.5 g) was loosely placed around the right hind paw of a male Sprague-Dawley rat (average weight, ˜250 g). The rats were allowed to acclimate to a Plexiglas chamber for at least 30 min before testing. Formalin was then injected (50 μl of 2.5% formalin, diluted in saline) into the dorsal surface of the right hind paw of the rat, and the animal was put into a chamber of the automated formalin apparatus where movement of the formalin-injected paw was recorded. The number of paw flinches per minute was tallied for the next 60 minutes. The time interval phases were defined as follows: Phase I (0-9 mins), Phase II (10-60 mins), Phase IIA (10-40 mins), and Phase IIB (41-60 mins). The following compounds were administered 1 hour prior to formalin administration. Compound 52 from Table 1 was administered by oral gavage in 4% DMSO, 10% Solutol, 86% H2O. Gabapentin was administered subcutaneously in 0.9% NaCl (aq). 4.

hNav1.7 = hNav1.7 (Homo sapiens (Human), UniProt Q15858); experiment: Nav1.7 potency, Patchliner automated patch clamp; type: cell-based; conditions: automated patchclamp
hNav1.7, sequence (Q15858 whole entry): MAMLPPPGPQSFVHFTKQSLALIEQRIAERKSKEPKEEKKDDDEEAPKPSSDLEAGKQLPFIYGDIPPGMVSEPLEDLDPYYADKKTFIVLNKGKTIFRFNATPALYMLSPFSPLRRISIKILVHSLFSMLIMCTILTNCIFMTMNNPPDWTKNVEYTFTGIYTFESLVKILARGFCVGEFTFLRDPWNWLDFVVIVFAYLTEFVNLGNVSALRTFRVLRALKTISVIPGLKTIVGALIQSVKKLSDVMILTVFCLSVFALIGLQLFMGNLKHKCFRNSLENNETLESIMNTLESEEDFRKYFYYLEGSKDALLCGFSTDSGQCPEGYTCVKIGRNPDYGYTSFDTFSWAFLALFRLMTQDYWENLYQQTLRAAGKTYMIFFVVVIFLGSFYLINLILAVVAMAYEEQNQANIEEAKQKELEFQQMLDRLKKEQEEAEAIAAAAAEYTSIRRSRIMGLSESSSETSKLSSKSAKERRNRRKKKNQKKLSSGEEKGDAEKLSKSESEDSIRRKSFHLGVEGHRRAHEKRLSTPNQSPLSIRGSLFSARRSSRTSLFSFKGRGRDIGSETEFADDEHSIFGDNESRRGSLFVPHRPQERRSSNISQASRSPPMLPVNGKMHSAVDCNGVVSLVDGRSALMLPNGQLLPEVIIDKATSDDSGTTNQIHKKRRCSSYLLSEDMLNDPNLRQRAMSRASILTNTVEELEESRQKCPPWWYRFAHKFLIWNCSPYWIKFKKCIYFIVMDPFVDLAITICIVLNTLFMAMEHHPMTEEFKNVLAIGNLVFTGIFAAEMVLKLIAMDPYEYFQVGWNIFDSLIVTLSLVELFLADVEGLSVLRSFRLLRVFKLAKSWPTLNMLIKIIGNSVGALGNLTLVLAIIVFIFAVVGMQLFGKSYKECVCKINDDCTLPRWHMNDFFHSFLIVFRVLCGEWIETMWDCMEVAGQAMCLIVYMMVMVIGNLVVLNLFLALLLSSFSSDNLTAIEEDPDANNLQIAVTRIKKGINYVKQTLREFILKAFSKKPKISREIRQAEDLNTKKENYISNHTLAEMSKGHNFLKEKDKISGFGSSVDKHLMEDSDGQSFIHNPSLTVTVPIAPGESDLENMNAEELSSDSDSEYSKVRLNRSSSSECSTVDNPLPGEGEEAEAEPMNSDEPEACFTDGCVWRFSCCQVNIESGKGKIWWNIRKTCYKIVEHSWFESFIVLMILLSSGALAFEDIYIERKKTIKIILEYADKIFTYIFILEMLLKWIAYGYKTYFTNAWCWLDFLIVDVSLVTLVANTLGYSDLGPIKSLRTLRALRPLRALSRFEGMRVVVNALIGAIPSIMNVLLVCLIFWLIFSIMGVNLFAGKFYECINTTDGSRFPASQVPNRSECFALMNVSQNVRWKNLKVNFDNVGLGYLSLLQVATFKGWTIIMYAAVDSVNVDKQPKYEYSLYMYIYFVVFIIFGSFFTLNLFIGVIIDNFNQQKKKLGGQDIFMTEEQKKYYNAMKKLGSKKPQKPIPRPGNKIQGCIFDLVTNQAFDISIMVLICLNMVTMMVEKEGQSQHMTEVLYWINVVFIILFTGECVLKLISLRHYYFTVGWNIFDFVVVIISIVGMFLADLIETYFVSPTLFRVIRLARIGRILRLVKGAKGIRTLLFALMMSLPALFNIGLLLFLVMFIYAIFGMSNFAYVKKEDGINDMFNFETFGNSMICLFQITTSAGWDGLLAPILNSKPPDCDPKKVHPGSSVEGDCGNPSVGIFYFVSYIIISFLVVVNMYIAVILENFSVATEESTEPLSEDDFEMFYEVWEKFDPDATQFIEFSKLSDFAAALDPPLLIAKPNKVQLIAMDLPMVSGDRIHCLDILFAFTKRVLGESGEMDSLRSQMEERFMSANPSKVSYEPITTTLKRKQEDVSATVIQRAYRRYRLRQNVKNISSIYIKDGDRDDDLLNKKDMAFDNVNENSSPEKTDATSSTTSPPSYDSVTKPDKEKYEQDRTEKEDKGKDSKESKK
hNav1.7, sequence (Q07699 19-218 partner): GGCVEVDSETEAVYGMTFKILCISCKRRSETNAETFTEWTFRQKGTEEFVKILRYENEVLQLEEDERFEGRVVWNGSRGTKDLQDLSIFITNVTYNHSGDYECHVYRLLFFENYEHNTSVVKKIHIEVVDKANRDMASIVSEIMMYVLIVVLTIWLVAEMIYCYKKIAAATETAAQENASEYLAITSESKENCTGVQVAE
Protocol: The generation of a HEK 293F cell line stably expressing human Nav1.7/Navβ1 was achieved by co-transfecting human SCN9A and human SCN1B cDNAs, subcloned into plasmid vectors, utilizing standard transfection techniques. Clones were selected using appropriate selection agents (0.3 mg/mL Zeocin and 0.8 mg/mL Geneticin) and maintained in Dulbecco's Modified Eagle medium, 10% fetal bovine serum, 1% non-essential amino acids to ˜80% confluence at 37° C. in a humidified incubator with 95% atmosphere and 5% CO2.
In some cases, the potency of compounds was measured using either the Patchliner automated patch clamp platform (Nanion) or manual patch clamp techniques. Both approaches allowed the compounds to be characterized based upon the ability of a compound to modulate use- and/or state-dependence. The potency data is tabulated in Table 3 and is represented by eight data fields. The first four fields represent potency data measured with the Patchliner automated platform under varying use- and state-dependent electrophysiology protocols similar to the Patch express protocols detailed above. The first data column describes the potency of compounds when the Nav1.7 channel is being repetitively activated at a 7 Hz hyperpolarization frequency (Table 3: hNav1.7: IC50 of inward current block at 7 Hz, Automated patchclamp). The second data column represents the potency at which 50% of the initial hyperpolarization pulse is inhibited by the compounds (Table 3: hNav1.7: IC50 of P1 block, Automated patchclamp). The third data column details the potency of compounds in their ability to block 50% of Nav1.7 channels when these channels are induced into the slow inactivated state (Table 3: hNav1.7: IC50 of slow inactivation block, Automated patchclamp). […] The next three data fields describe the data generated from manual patchclamp electrophysiology measurements using similar methods to those employed for automated patchclamp studies. […] The last column characterizes the state-dependence of compound inhibition. […]

[1] = 3 mg/kg oral gavage 1 hour prior to formalin
[2] = 10 mg/kg oral gavage 1 hour prior to formalin
[3] = 30 mg/kg oral gavage 1 hour prior to formalin
[4] = 100 mg/kg SC 1 hour prior to formalin

`NC1(c2nc3cc(C(F)(F)F)cc(C(F)(F)F)c3[nH]2)Cc2ccccc2C1` [Compound 52, 2-(4,6-bis(trifluoromethyl)-1H-benzo[d]imidazol-2-yl)-2,3-dihydro-1H-inden-2-amine] was tested, and the “Phase 1 paw flinches” value (formalin test in rats; [1]) was 345 ± 75, the “Total Phase 2 paw flinches” value (formalin test in rats; [1]) was 1365 ± 174 and the “Phase 2a paw flinches” value (formalin test in rats; [1]) was 988 ± 139. For the same compound, the “Phase 2b paw flinches” value (formalin test in rats; [1]) was 377 ± 79, the “Phase 1 paw flinches” value (formalin test in rats; [2]) was 315 ± 58 and the “Total Phase 2 paw flinches” value (formalin test in rats; [2]) was 962 ± 189. The “Phase 2a paw flinches” value (formalin test in rats; [2]) was 758 ± 199, the “Phase 2b paw flinches” value (formalin test in rats; [2]) was 204 ± 66 and the “Phase 1 paw flinches” value (formalin test in rats; [3]) was 333 ± 75. The “Total Phase 2 paw flinches” value (formalin test in rats; [3]) was 853 ± 259, the “Phase 2a paw flinches” value (formalin test in rats; [3]) was 706 ± 261 and the “Phase 2b paw flinches” value (formalin test in rats; [3]) was 147 ± 101.

Compound `N[C@H](Cc1cccc(C(F)(F)F)c1)C(=O)NCc1nc2c(C(F)(F)F)cc(C(F)(F)F)cc2[nH]1` [Compound 75, (R)-2-amino-N-((4,6-bis(trifluoromethyl)-1H-benzo[d]imidazol-2-yl)methyl)-3-(3-(trifluoromethyl)phenyl) propanamide] has an IC50 (hNav1.7; 7 Hz, read-out: Nav1.7 IC50 INWARD CURRENT BLOCK (nM) (7 Hz, Automated Patchclamp)) of 15000 nM, an IC50 (hNav1.7; initial pulse (P1), read-out: Nav1.7 IC50 P1 BLOCK (nM) (Automated Patchclamp)) of 15000 nM and an IC50 (hNav1.7; slow inactivated state, read-out: Nav1.7 IC50 SLOW INACTIVATION BLOCK (nM) (Automated Patchclamp)) of 15000 nM.

For `NCC1(CC(=O)O)CCCCC1` [Gabapentin, reference compound], the “Phase 1 paw flinches” value (formalin test in rats; [4]) was 320 ± 58, the “Total Phase 2 paw flinches” value (formalin test in rats; [4]) was 562 ± 213 and the “Phase 2a paw flinches” value (formalin test in rats; [4]) was 486 ± 202. The “Phase 2b paw flinches” value (formalin test in rats; [4]) was 77 ± 47.
